This note sets out measurements from ChEMBL document CHEMBL2151013, “Diarylheptanoid sulfates and related compounds from Myrica rubra bark” (J Nat Prod, 2012).

The nature of assay [1]: Antioxidant activity assessed as superoxide dismutase-like activity by SOD-WST assay. Type of assay: functional.
Assay [2] is described as follows: Antioxidant activity assessed as trolox equivalent of […]-induced radical scavenging activity by ORAC fluorescence assay. Type of assay: functional.

In brackets after ≈: the same amount, converted by molar mass.

Usually IC50 stands for the concentration needed to halve the response being measured.

As to `COc1c2cc(c(O[C@@H]3O[C@H](COC(=O)c4cc(O)c(O)c(O)c4)[C@@H](O)[C@H](O)[C@H]3O)c1OC)CCCC[C@H](O)CCc1ccc(O)c-2c1`, the IC50 in assay [1] came out at 139.6 µg/mL (≈ 208 µM).
As for `O=C(O[C@@H]1Cc2c(O)cc(O)cc2O[C@@H]1c1cc(O)c(O)c(O)c1)c1cc(O)c(O)c(O)c1` [EPIGALOCATECHIN GALLATE], the half-maximal inhibitory concentration (IC50) in assay [1] came to 26.1 µg/mL (≈ 56.9 µM).
Turning to `COc1c2cc(c(O[C@@H]3O[C@H](COC(=O)c4cc(O)c(O)c(O)c4)[C@@H](O)[C@H](O)[C@H]3O)c1OC)CCCC[C@@H](O)CCc1ccc(O)c-2c1`, the IC50 in assay [1] is 90.5 µg/mL (≈ 135 µM).
The same measure, in the same setting: for `O=C(O)c1cc(O)c(O)c(O)c1` [GALLIC ACID] the value was 6.3 µg/mL (≈ 37 µM).
As for `O=c1c(O)c(-c2cc(O)c(O)c(O)c2)oc2cc(O)cc(O)c12` [MYRICETIN], the half-maximal inhibitory concentration (IC50) in assay [1] was determined as 139.6 µg/mL (≈ 439 µM). Moreover, the Activity in assay [2] came out at 16100 µmolequiv/g.
For `C[C@@H]1O[C@@H](Oc2c(-c3cc(O)c(O)c(O)c3)oc3cc(O)cc(O)c3c2=O)[C@H](OC(=O)c2cc(O)c(O)c(O)c2)[C@H](O)[C@H]1O`, the IC50 in assay [1] was 38.6 µg/mL (≈ 62.6 µM).
Same read-out and setting: for `O=C(O[C@@H]1[C@@H](c2c(O)cc(O)c3c2O[C@H](c2cc(O)c(O)c(O)c2)[C@H](OC(=O)c2cc(O)c(O)c(O)c2)C3)c2c(O)cc(O)cc2O[C@@H]1c1cc(O)c(O)c(O)c1)c1cc(O)c(O)c(O)c1` the value was 19.2 µg/mL (≈ 21 µM).
In the case of `COC1=C(OC)C(=O)C2=C(CCCCC(O)CCc3ccc(O)c2c3)C1=O` (stereo not drawn) [ACTINIDIONE], the IC50 in assay [1] turned out to be 7.9 µg/mL (≈ 21.2 µM).
Take `C[C@H]1O[C@@H](Oc2c(-c3cc(O)c(O)c(O)c3)oc3cc(O)cc(O)c3c2=O)[C@@H](O)[C@@H](O)[C@@H]1O` [MYRICITRIN]: in assay [1], the IC50 was 127.5 µg/mL (≈ 275 µM). Further, the Activity in assay [2] was found to be 13200 µmolequiv/g.
As to `COc1c2cc(c(O)c1OC)CCCC[C@@H](OS(=O)(=O)O)CCc1ccc(O)c-2c1`, in assay [1], the IC50 was 786.9 µg/mL (≈ 1790 µM). Besides, in assay [2], the Activity was 8680 µmolequiv/g.
With `COc1cc2cc(c1O)-c1cc(ccc1O)CC[C@@H](OS(=O)(=O)O)CCCC2`, the IC50 in assay [1] is more than 1000 µg/mL. Moreover, the Activity in assay [2] came to 9620 µmolequiv/g.
Take `COc1c2cc(c(O)c1OC)CCCC[C@@H](O)CCc1ccc(O)c-2c1`: the IC50 in assay [1] was more than 100 µg/mL.
Take `COc1c2cc(c(O[C@@H]3O[C@H](COC(=O)c4cc(O)c(O)c(O)c4)[C@@H](O)[C@H](O)[C@H]3O)c1OC)CCCCC(=O)CCc1ccc(O)c-2c1`: the IC50 in assay [1] was 106.8 µg/mL (≈ 159 µM).
On the same count and under the same terms, the value for `COc1c2cc(c(O)c1OC)CCCCC(=O)CCc1ccc(O)c-2c1` [MYRICANONE] was more than 1000 µg/mL.
